Test results published in patent EP4635966A1, “SYNTHETIC VARIANTS OF THE GANGLIOSIDE NGCGM3 AND USE THEREOF IN CANCER TREATMENT” (Centro de Inmunologia Molecular, priority 2022, dated 2024).

Tests used:
P3X63 myeloma cells = test: Subcutaneous P3X63 myeloma tumor growth (tumor volume); type: in vivo, BALB/c mice; conditions: day 5; for TV < 36 mm^3 (percentage distribution of tumor volume of the animals) / TV > 36 mm^3 (percentage distribution of tumor volume of the animals): Example 5, Table 1, i.p. on days 1, 5 and 9 (200 µg NGcGM3 d18:1-C24:1); for TV < 36 mm^3 (percentage distribution of tumor volume of the animals) / TV > 36 mm^3 (percentage distribution of tumor volume of the animals) / TV < 36 mm^3 (percentage distribution of tumor volume of animals) / TV > 36 mm^3 (percentage distribution of tumor volume of animals): 1x10^6 P3X63 s.c.; for growth of subcutaneous tumors: Example 5, p<0.001 for NGcGM3 d18:1-C24:1, p<0.05 for αGalCer vs placebo; for TV < 36 mm^3 (percentage distribution of tumor volume of animals) / TV > 36 mm^3 (percentage distribution of tumor volume of animals): Example 10, Table 2, treatment on days 1, 5 and 9; for antitumor effect (inhibition of tumor growth vs control group): Example 10, p=0.0031 NGcGM3 d18:1-C24:1, p=0.0004 GlycoVax 24:1
Protocol: 1x10^6 P3X63 cells were implanted subcutaneously into syngeneic BALB/c mice. Animals were randomized, divided into groups of 6-8 and received intraperitoneal treatments with 200 µg NGcGM3 d18:1-C24:1 ganglioside, αGalCer or vehicle (5.6% sucrose solution, 0.75% L-histidine and 0.5% Tween20 0.5%) on days 1, 5 and 9. Tumor diameters were measured with a caliper and tumor volume (TV) was calculated according to the formula: TV (mm^3) = π/6 × major diameter × (minor diameter)^2. […] The individual tumor volume values of the animals in each group and the mean and standard deviation of the mean in each case on day 5 of the experiment are shown. […] Table 1. Percentage distribution of tumor volume of the animals in each group.
1x10^6 P3X63 myeloma cells were implanted subcutaneously into syngeneic BALB/c mice. Animals were randomized, divided into groups of 6-8 and received treatments with vehicle solution (5.6% sucrose, 0.75% L-histidine and 0.5% Tween-20), αGalCer, NGcGM3 d18:1-C24:1 or nanoparticles of OMPC and NGcGM3 d18:1-C24:1 (GlycoVax 24:1) on days 1, 5 and 9.
Subcutaneous tumor diameters were measured every 2-3 days with a caliper and TV was calculated according to the formula: TV (mm^3) = π/6 × major diameter × (minor diameter)^2. […]

iNKT cells = test: In vivo iNKT cell activation: serum IFNγ by ELISA after i.p. injection; parameters: species or system C57BL/6 mice; conditions: 200 µg i.p.; blood 16 hours after administration; Figure 7
Protocol: C57BL/6 mice were injected intraperitoneally with 200 µg of natural NGcGM3 ganglioside, NGcGM3 d18:1-C24:1, NGcGM3 d18:1-C 18:0 and 2 µg of αGalCer or vehicle (5.6 % sucrose, 0.75 % L-histidine and 0.5 % Tween-20) and blood was drawn 16 hours after the administration. Serum IFNγ levels were assessed by ELISA as an indirect measure of iNKT cell activation (Mouse IFNy ELISA Ready-SET-Go!, eBioscience).

[1] = test system: FF13 mouse iNKT-cell hybridoma; test: In vitro iNKT cell activation: bmDC co-cultured with FF13 hybridoma, IL-2 by ELISA; type: cell-based; conditions: for activation of iNKT cell hybridoma (IL-2 secretion): Example 6
Protocol: The FF13 mouse iNKT-cell hybridoma previously described by Schumann J. (Schumann J. Eur J Immunol. 2007, 37:1431-41) was provided by Dr. Lucia Mori (University Hospital Basel, Switzerland) and was cultured in RPMI-1640 medium with GlutaMAX-I and 25 mM HEPES supplemented with 10 % heat-inactivated fetal bovine serum (FBS), 100 U/ml penicillin, 100 µg/ml streptomycin and 55 µM 2-mercaptoethanol.
Mature bone marrow precursor-derived dendritic cells (bmDC) were used as APCs for in vitro iNKT cell activation assays and in vivo adoptive transfer experiments. The bmDCs were obtained according to the previously described protocol of differentiation from bone marrow progenitors in the presence of granulocyte/macrophage colony stimulating factor (GM-CSF) (Inaba K. J ExpMed.1992, 176:1693-1702) with some modifications. Briefly, bone marrow progenitors were isolated from femurs and tibias of C57BL/6 mice and cultured in complete RPMI-1640 medium (RPMI-1640 with GlutaMAX-I, 10% FBS, 100 U/mL penicillin, 100 µg/mL streptomycin and 55 µM 2-mercaptoethanol) supplemented with 20 ng/mL GM-CSF (R&D Systems). The culture was fed with fresh medium on day 3 and maturation of bmDCs was induced with 1 µg/ml LPS. On day 7, cells were harvested and used for iNKT cell activation assays or adoptive transfer.
5x10^4 bmDC were grown in RPMI-1640 medium with 10% FBS in the presence of αGalCer at a concentration of 100 ng/ml and concentrations of 0.1, 1 and 10 µg/ml of natural NGcGM3 and the synthetic variants NGcGM3 d18:1-C24:1, NGcGM3 d18:1-C24:0, NGcGM3 d18:1-C18:0, NGcGM3 d18:1-C18:1 and NGcGM3 d18:1-C18:2 or vehicle (0.1 % DMSO) for 16 -24 hours. Then, 10^5 FF13 hybridoma cells were added and co-cultured with the bmDCs for 24 hours. The culture supernatants were collected and evaluated for IL-2 content by ELISA. […] Differences were observed between the NGcGM3 variants in terms of their antigenicity to iNKT cells based on the length and structure of the fatty acid in the ceramide.
5x10^4 bmDC were cultured in RPMI-1640 medium with 10% FBS in the presence of 10 µg/ml and 1 µg/ml of NGcGM3 d18:1-C24:1 ganglioside, GM3 d18:1-C24:1 or vehicle (0.1% DMSO) for 16-24 hours. Next, 10^5 FF13 hybridoma cells were added and co-cultured with the bmDCs for 24 hours. The culture supernatants were collected and IL-2 content quantified by ELISA. From Figure 8, the synthetic ganglioside variants NGcGM3 and GM3, with identical ceramide structure, have differences in their ability to stimulate iNKT cells.
5x10^4 bmDC were cultured in RPMI-1640 medium with 10% FBS in the presence of 100 ng/ml, 1 µg/ml or 10 µg/ml concentrations of nanoparticles, αGalCer or vehicle (0.1% DMSO) for 16 -24 hours. […] The culture supernatants were collected and IL-2 content quantified by ELISA. […]

EL-4 thymoma cells [2] = test: Survival of EL-4 tumor-bearing mice; type: in vivo, C57BL/6 mice; conditions: 200 µg i.p. on days 1, 5 and 9; p=0.0005 vs placebo
Protocol: Syngeneic C57BL/6 mice were inoculated intravenously through the tail vein with 2x10^5 EL-4 thymoma cells (ATCC TIB-39); mice were randomized and distributed into groups of 7-9 animals. Experimental groups received intraperitoneal treatments with 200 µg of ganglioside variants NGcGM3 d18:1-C24:1 and NGcGM3 from natural source or vehicle (5.6% sucrose solution, 0.75% L-histidine and 0.5% Tween20) on days 1, 5 and 9. The animals were monitored and sacrificed if they presented any sign or symptom that affected their ability to ingest food and water or compromised their general state of health, according to veterinary criteria.
Syngeneic C57BL/6 mice were inoculated intravenously through the tail vein with 2x10^5 EL-4 thymoma cells; mice were randomized and distributed into groups of 7-9 animals. On the day following tumor inoculation, 6x10^5 bmDC previously cultured for 16 hours with vehicle (DMSO 0.1%), NGcGM3 d18:1-C24:1 ganglioside (10 µg/ml) or the ganglioside extracted from a natural source (10 µg/ml) were administered in a single dose, intravenously. Cells were washed extensively with serum-free RPMI-1640 medium to remove excess of lipids before transfer. Mice were monitored for signs or symptoms that affected their ability to ingest food and water or compromised their general health status, according to veterinary criteria.

EL-4 thymoma cells [3] = test: EL-4 hepatic metastatic spread model (liver weight); type: in vivo, C57BL/6 mice
Protocol: Syngeneic C57BL/6 mice were inoculated intravenously through the tail vein with 2x10^5 EL-4 thymoma cells. Mice were randomized and distributed into groups of 7-9 animals. Experimental groups received intraperitoneal treatments with 200µg of synthetic and natural variants of NGcGM3 or vehicle (5.6% sucrose solution, 0.75% L-histidine and 0.5% Tween20) on days 1, 5 and 9. Animals were sacrificed 12-13 days after tumor inoculation, livers were removed and weighed to determine the level of hepatic metastatic spread. The liver weight of healthy animals of the same age and batch was used as a control.
Syngeneic C57BL/6 mice were inoculated intravenously through the tail vein with 2x10^5 EL-4 thymoma cells; mice were randomized and distributed into groups of 7-9 animals. Experimental groups received intraperitoneal treatments with 10-30 µg of nanoparticles of NGcGM3 d18:1-C24:1, NGcGM3 d18:1-C18:0 and natural NGcGM3 with OMPC of N. meningitidis on days 1, 5 and 9 or Tris/HCl solution (Placebo). Animals were sacrificed 12-13 days after tumor inoculation. To determine the level of liver metastatic spread, their livers were removed and weighed.
Syngeneic C57BL/6 mice were inoculated intravenously through the tail vein with 2x10^5 EL-4 thymoma cells; mice were randomized and distributed into groups of 7-9 animals. On the day following tumor inoculation, 6x10^5 bmDC, previously cultured for 16 hours with vehicle (DMSO 0.1%), NGcGM3 d18:1-C24:1 ganglioside (10 µg/ml) or NGcGM3 extracted from natural source (10 µg/ml) were administered in a single dose, intravenously. Cells were extensively washed with serum-free RPMI-1640 medium to remove excess of lipids before transfer. Animals were sacrificed 12-13 days after tumor inoculation, livers were collected and the level of hepatic metastatic spread was determined by weigh. Livers from healthy mice of the same age and batch were used as a reference. […] Clearly, the transfer of bmDC pulsed with NGcGM3 d18:1-C24:1, induce a significant reduction of EL-4 liver metastasis, compared to the placebo group, in which empty dendritic cells were transferred. […], the transfer of bmDC incubated with ganglioside extracted from a natural source was ineffective. (equal letters p>0.05, different letters p<0.05, ANOVA and Tukey tests). […]
To maintain the depletion of the populations of interest throughout the duration of the experiment, equal doses of depleting antibodies were administered on days 4 and 11 after tumor inoculation. Animals were sacrificed 12-13 days after tumor inoculation, livers were removed and the level of hepatic metastatic spread was determined by weigh. […]

Structure (SMILES)	TV < 36 mm^3 (percentage distribution of tumor volume of the animals) (P3X63 myeloma cells)	TV > 36 mm^3 (percentage distribution of tumor volume of the animals) (P3X63 myeloma cells)	growth of subcutaneous tumors (P3X63 myeloma cells)	TV < 36 mm^3 (percentage distribution of tumor volume of animals) (P3X63 myeloma cells)	TV > 36 mm^3 (percentage distribution of tumor volume of animals) (P3X63 myeloma cells)	antitumor effect (inhibition of tumor growth vs control group) (P3X63 myeloma cells)	serum IFNγ levels (in vivo activation of iNKT cells) (iNKT cells)	activation of iNKT cell hybridoma (IL-2 secretion) ([1]; 100 ng/ml, same concentration as αGalCer)	activation of iNKT cell hybridoma (IL-2 secretion) ([1]; 0.1, 1 and 10 µg/ml on bmDC 16-24 h, co-culture 24 h, Figure 6)	activation of iNKT cell hybridoma (IL-2 secretion) ([1]; highest concentration tested, 10 µg/ml, αGalCer reference at 100 ng/ml)	iNKT cell activation (IL-2 secretion) compared with GM3 d18:1-C24:1 ([1]; Example 8, 10 µg/ml and 1 µg/ml, Figure 8)	survival of EL-4 tumor-bearing animals (EL-4 thymoma cells [2])	TV < 36 mm^3 (percentage distribution of tumor volume of the animals) (P3X63 myeloma cells; listed as NGcGM3 24:1)	TV < 36 mm^3 (percentage distribution of tumor volume of animals) (P3X63 myeloma cells; listed as NGcGM3 24:1)	antimetastatic effect (liver weight, hepatic metastatic spread) (EL-4 thymoma cells [3]; 2x10^5 EL-4 i.v., 200 µg i.p. on days 1, 5 and 9, livers weighed 12-13 days after inoculation, Figure 2)	anti-metastatic effect (liver weight), NK and NKT cell populations not affected (EL-4 thymoma cells [3]; Example 18, 200 µg i.p. on days 1, 5 and 9 + PBS)	anti-metastatic effect (liver weight) after depletion of NK and NKT cells (EL-4 thymoma cells [3]; Example 18, 200 µg i.p. on days 1, 5 and 9 + anti-NK1.1 Mab, Figure 18a)	anti-metastatic effect (liver weight) after depletion of NK cells only (EL-4 thymoma cells [3]; Example 18, 200 µg i.p. on days 1, 5 and 9 + anti-asialoGM1 antibody, Figure 18b)
CCCCCCCCCCCCCCCCCCCCCCCCCC(=O)N[C@@H](CO[C@H]1O[C@H](CO)[C@H](O)[C@H](O)[C@H]1O)[C@H](O)[C@H](O)CCCCCCCCCCCCCC [αGalCer, α-galactosylceramide, reference compound]	25%	75%	significantly inhibited the growth of subcutaneous tumors	25%	75%	did not show a statistically significant antitumor effect												
CCCCCCCCCCCCCC=CC(O)C(COC1OC(CO)C(OC2OC(CO)C(O)C(OC3(C(=O)O)CC(O)C(NC(=O)CO)C(C(O)C(O)CO)O3)C2O)C(O)C1O)NC(=O)CCCCCCCCCCCCCCCCC (stereo not shown) [NGcGM3 d18:1-C18:0, reference compound]							inactive											
CCCCCCCCC=CCCCCCCCCCCCCCC(=O)NC(COC1OC(CO)C(OC2OC(CO)C(O)C(OC3(C(=O)O)CC(O)C(NC(=O)CO)C(C(O)C(O)CO)O3)C2O)C(O)C1O)C(O)C=CCCCCCCCCCCCCC [NGcGM3 d18:1-C24:1, O-[3,5-didesoxy-5-hydroxyacetamido-D-glycero-α-D-galacto-2-nonupyranosyl-(2→3)-O-(β-D-galactopyranosyl)-(1→4)-β-D-glucopyranosyl-(1→1)-(2R,3S,4E)-2-tetracos-15-enamido-4-octadecene-1,3-diol]	50%	50%	significantly inhibited the growth of subcutaneous tumors	50%	50%	significant inhibition of tumor growth	higher than in the rest of the experimental groups	able to activate iNKT cells	potent activation of FF13 hybridoma cells	surpass the effect of αGalCer	more potent effect on iNKT cell activation than the GM3 variant	significantly increased the survival	50%	50%	statistically significant antimetastatic effect	is present	abolishes the aforementioned anti-tumor effect	the antitumor effect is maintained
